The values below come from paper PMC3698108, “Structural and bioactive studies of terpenes and cyclopeptides from the Genus Rubia” (Chemistry Central Journal, 2013).

Entries after “also recorded” stand apart in the source; their conditions may differ.

The test system of one series is TRAIL-induced apoptosis. The conditions noted are these: cited from earlier work.
The next series relates to glyoxalase I. The conditions noted are these: cited from earlier work.
The subject of the next series is renal aldose reductase. The conditions noted are these: cited from earlier work.
The subject of series [1] is Vancomycin-Resistant Enterococci. As to conditions: cited from earlier work; for antimicrobial activities: weaker than clinical antimicrobial drugs.
A further series deals with four cell lines. The conditions noted are these: cited from earlier work.
Series [2] has as its system human immunodeficiency virus (HIV-1) protease. Further details: method as in PMID 8759159. The conditions noted are these: cited from earlier work.
The test system of another series is STAT3. The conditions noted are these: cited from earlier work.
The subject of another series is DNA topoisomerase II. Further details: method as in PMID 18239313. The conditions noted are these: cited from earlier work.
The subject of a further series is HT-29, MCF-7 and HepG2. Further details: method as in PMID 18239313. As to conditions: cited from earlier work.
Details of series [3]: method as in PMID 20188082. As to conditions: mice; cited from earlier work.
The subject of series [4] is A549, SK-OV-3, SK-MEL-2, MES-SA and HCT-15. Further details: method as in PMID 15089031. The conditions noted are these: cited from earlier work.
The subject of the next series is HT-29. The conditions noted are these: cited from earlier work.
The subject of another series is platelet aggregation. More on the design: method as in PMID 12350148. As to conditions: cited from earlier work.
The subject of series [5] is NO production from LPS-activated macrophages. Further details: method as in PMID 12762798. The conditions noted are these: cited from earlier work.
A further series relates to A549, Hela and SMMC-7721. More on the design: method as in PMID 21973054. The conditions noted are these: data not very satisfactory; cited from earlier work.
The next series relates to P-388. As to conditions: cited from earlier work; for cytotoxicity against P-388 IC50: moderate cytotoxicity.
Series [6] deals with RAW 264.7 murine macrophages. The conditions noted are these: cited from earlier work.
In another series the test system is P388. The conditions noted are these: cited from earlier work.
For the next series, the system named is HL-60 cells. More on the design: method as in doi:10.1016/j.phytol.2012.02.014. As to conditions: much weaker than RA-XXIV and RA-VII; cited from earlier work.
The next series deals with iNOS. More on the design: method as in PMID 12808242. The conditions noted are these: cited from earlier work.
The next series concerns 11 cancer cell lines. The conditions noted are these: SRB assay; cited from earlier work. A general note: Sulforhodamine B stains cellular protein and so reports cell mass.

In the case of `COC(=O)CC[C@@H]1NC(=O)[C@@H](C)NC(=O)[C@@H]2Cc3ccc(O)c(c3)Oc3ccc(cc3)C[C@@H](C(=O)N2C)N(C)C(=O)[C@H](C)NC(=O)[C@H](Cc2ccc(OC)cc2)N(C)C1=O`, the melting point (usually the temperature, or range, at which the solid turns liquid) was 253 to 254 °C.
`C[C@H]1[C@H](C)CC[C@]2(C(=O)O)CC[C@]3(C)C(=CC[C@@H]4[C@@]5(C)CC[C@H](O)C(C)(C)[C@@H]5CC[C@]43C)[C@H]12` [Compound 11, Ursolic acid]: in the series with TRAIL-induced apoptosis, the TRAIL-induced apoptosis entry is “potentiated TRAIL-induced apoptosis”. In addition, in the series with glyoxalase I, the “activity of glyoxalase I” value was “enhanced the activity”. For the same compound, the “renal aldose reductase activity” value with renal aldose reductase was “markedly suppressed”. Further, in series [1], the toxicity result was “low toxicity” and the antimicrobial activities entry was “fairly high antimicrobial activities”. Also, in the series on four cell lines, the apoptotic effects entry is recorded as “markedly apoptotic effects”; the cell adhesion entry is “suppress cell adhesion”; the “production of VEGF and ICAM-1” value is “reduce the production of VEGF and ICAM-1”. Moreover, the “inhibition on HIV-1 protease” value in series [2] was “possess inhibition”. For the same compound, the STAT3 activation entry with STAT3 is reported as “novel blocker of STAT3 activation”.
As for `CC1(C)CC[C@]2(C(=O)O)CC[C@]3(C)C(=CC[C@@H]4[C@@]5(C)CC[C@H](O)C(C)(C)[C@@H]5CC[C@]43C)[C@@H]2C1` [Compound 12, Oleanolic acid], the “activity of glyoxalase I” value in the series on glyoxalase I was “enhanced the activity”. For the same compound, the “inhibitory activity against DNA topoisomerase II compared with DNA topoisomerase I” value in the series with DNA topoisomerase II is on record as “selective inhibitory activity”. The “cytotoxicity against HT-29, MCF-7 and HepG2” value in the series with HT-29, MCF-7 and HepG2 was “weak cytotoxicity”. The “renal aldose reductase activity” value in the series with renal aldose reductase is “markedly suppressed”. Further, in [3], the glucose tolerance entry is on record as “improve glucose tolerance” and the visceral adiposity result is on record as “ameliorate visceral adiposity”. Moreover, in series [1], the toxicity result was “low toxicity” and the antimicrobial activities result is recorded as “fairly high antimicrobial activities”. In the series on four cell lines, the apoptotic effects result is recorded as “markedly apoptotic effects”; the cell adhesion entry is listed as “suppress cell adhesion”; the “production of VEGF and ICAM-1” value is “reduce the production of VEGF and ICAM-1”.
Consider `CC(=O)OC1CCC2(C)C(CCC3(C)C2CC=C2C4CC(C)(C)CCC4(C=O)CCC23C)C1(C)C` (stereo not drawn) [Compound 15, Oleanolic aldehyde acetate], for which, in series [4], the “bioactivities against A549, SK-OV-3, SK-MEL-2, MES-SA and HCT-15” value is on record as “potent bioactivities”.
Consider `CC(C)[C@@H]1C[C@@H](O)[C@H]2[C@@]1(CO)CC[C@@]1(C)[C@H]3C(=CC[C@]21C)[C@@]1(C)CC[C@H](O)C(C)(C)[C@@H]1C[C@@H]3O` [Compound 16, Rubiarbonol A], for which the melting point was 260 to 263 °C. Besides, in the series on HT-29, the “cytotoxicity against HT-29” value was “relatively strong cytotoxicity”. Besides, in the series on platelet aggregation, the “effect on platelet aggregation at the high doses” value is “promoted platelet aggregation” and the “effect on platelet aggregation at the lower concentrations” value was “possessed antiplatelet aggregation activity”. Besides, the “inhibition of NO production” value in [5] was “inhibit NO production; also recorded: inhibitory activities on NO production”.
With `CC(C)[C@@H]1C[C@@H](O)[C@H]2[C@@]1(C)CC[C@@]1(C)[C@H]3C(=CC[C@]21C)[C@@]1(C)CC[C@H](O)C(C)(C)[C@@H]1C[C@@H]3O` [Compound 17, Rubiarbonol B], the “inhibition against arachidonic acid-induced and collagen-induced platelet aggregation” value with platelet aggregation (at 150 μM, among compounds 16, 17 and 25) is on record as “most potent inhibition”.
In the case of `CC(C)[C@@H]1C[C@@H](O)[C@H]2[C@@]1(CO)CC[C@@]1(C)[C@H]3C(=CC[C@]21C)[C@@]1(C)C[C@@H](O)[C@H](O)C(C)(C)[C@@H]1C[C@@H]3O` [Compound 21, Rubiarbonol F], the “inhibition of NO production” value in series [5] is “inhibit NO production; also recorded: inhibitory activities on NO production”.
In the case of `CC(=O)OC[C@@]12CC[C@@]3(C)[C@H]4C(=CC[C@]3(C)[C@H]1[C@H](O)C[C@H]2C(C)C)[C@@]1(C)CCC(=O)C(C)(C)[C@@H]1C[C@@H]4O` [Compound 27, Rubiarbonone C], the melting point lay in the range of 98 to 100 °C. For the same compound, the “inhibition of NO production” value in [5] is listed as “inhibit NO production; also recorded: inhibitory activities on NO production”.
In the case of `CC(=O)OC[C@@]12CC[C@@]3(C)[C@H]4C(=CC[C@]3(C)[C@H]1[C@H](O)C[C@H]2C(C)C)[C@@]1(C)CC[C@H](O)C(C)(C)[C@@H]1C[C@@H]4O` [Compound 42, Rubianol-c], the “inhibition of NO production” value in series [5] was “inhibit NO production; also recorded: inhibitory activities on NO production”.
Take `CC(=O)OC[C@@]12CC[C@@]3(C)[C@H]4C(=CC[C@]3(C)[C@H]1[C@H](O)C[C@H]2C(C)C)[C@@]1(C)C[C@@H](O)[C@H](O)C(C)(C)[C@@H]1C[C@@H]4O` [Compound 43, Rubianol-d]: in [5], the “efficacy of NO production inhibition compared with L-NMMA” value is “equivalent to L-NMMA” and the “inhibition of NO production” value is recorded as “exhibited the inhibition”.
As for `CC(C)[C@@H]1C[C@@H](O)[C@H]2[C@@]1(C)CC[C@@]1(C)C3=CC[C@H]4C(C)(C)[C@@H](O)CC[C@]4(C)C3=CC[C@]21C` [Compound 54, Rubiyunnanol A], the “inhibition on A549, Hela and SMMC-7721” value in the series on A549, Hela and SMMC-7721 is recorded as “had inhibition”.
In the case of `CC(C)[C@@H]1CC=C2[C@@]1(C)CC[C@@]1(C)[C@H]3C(=CC[C@]21C)[C@@]1(C)CC[C@H](O)C(C)(C)[C@@H]1C[C@@H]3O` [Compound 55, Rubiyunnanol B], the melting point is 247 to 248 °C. Besides, the “inhibition on A549, Hela and SMMC-7721” value in the series on A549, Hela and SMMC-7721 is reported as “had inhibition”.
Turning to `CC(=O)O[C@@H]1C[C@@H](C(C)C)[C@]2(CO)CC[C@@]3(C)[C@H]4C(=CC[C@]3(C)[C@@H]12)[C@@]1(C)C=CC(=O)C(C)(C)[C@@H]1C[C@@H]4O` [Compound 58, Rubiarbonone E 19-acetate], in the series on A549, Hela and SMMC-7721, the “inhibition on A549, Hela and SMMC-7721” value is on record as “had inhibition”.
For the compound `CC(=O)OC[C@@]12CC[C@@]3(C)[C@H]4C(=CC[C@]3(C)[C@H]1[C@H](O)C[C@H]2C(C)C)[C@@]1(C)CC[C@H](O[C@@H]2O[C@H](CO[C@@H]3O[C@H](CO)[C@@H](O)[C@H](O)[C@H]3O)[C@@H](O)[C@H](O)[C@H]2O)C(C)(C)[C@@H]1C[C@@H]4O` [Compound 62, Rubiarboside G 28-acetate], the “inhibition on A549, Hela and SMMC-7721” value in the series on A549, Hela and SMMC-7721 is given as “had inhibition”.
As for `COc1ccc(C[C@H]2C(=O)N[C@@H](C)C(=O)N(C)[C@H]3Cc4ccc(cc4)Oc4cc(ccc4OC)C[C@@H](C(=O)N[C@H](C)C(=O)N[C@@H](CCC(N)=O)C(=O)N2C)N(C)C3=O)cc1` [Compound 90, RA- XXIII], the “cytotoxicity against P-388 IC50” value in the series on P-388 (P-388) is 160 µg/mL.
For `COc1ccc(C[C@H]2C(=O)N[C@@H](C)C(=O)N(C)[C@H]3Cc4ccc(cc4)Oc4cc(ccc4O)C[C@@H](C(=O)N[C@H](C)C(=O)N[C@@H](CCC(N)=O)C(=O)N2C)N(C)C3=O)cc1` [Compound 91, RA- XXIV], the “activity against NO production in LPS” value in series [6] was “exhibited activity”. For the same compound, the “cytotoxicity against P-388 IC50” value in the series with P-388 (P-388) is 480 µg/mL.
On to `COc1ccc(C[C@H]2C(=O)N[C@@H](C)C(=O)N(C)[C@H]3Cc4ccc(cc4)Oc4cc(ccc4OC)C[C@@H](C(=O)N[C@H](C)C(=O)N[C@@H](C)C(=O)N2C)N(C)C3=O)cc1` [Compound 104, RA-700], for which the “activities against P388” value in the series with P388 is “medium activities”.
For the compound O-seco-RA-XXIV [Compound 109], in the series on HL-60 cells, the “cytotoxic effects on HL-60 cells” value is listed as “exhibited cytotoxic effects”.
For the compound RA- XVIII [Compound 85], in the series on P-388 (P-388), the “cytotoxicity against P-388” value was 0.012 µg/mL.
For the compound RA- XXII [Compound 89], the “relative cytotoxicity against P388” value with P-388 (RA-VII (74) as reference) was “less cytotoxic than 88”.
RA-I [Compound 66]: the “activity against NO production in LPS” value in [6] is “exhibited activity”.
Regarding RA-IX [Compound 76], the “antitumour effect on P388” value in the series with P388 is listed as “almost no antitumour activities”.
RA-X [Compound 77]: the “antitumour effect on P388” value in the series with P388 was “strong antitumour effect”.
RA-XII [Compound 79]: the “activity against NO production in LPS” value in series [6] is on record as “exhibited activity”. Besides, the “effects on iNOS induction” value in the series on iNOS is listed as “potent effects”. For the same compound, the “antitumor activity against P388” value in the series with P388 was “potent antitumor activity”.
In the case of RC-18 [Compound 105], the “activities against P388” value with P388 is recorded as “medium activities”.
Take RY-I [Compound 100]: the “activity against NO production in LPS” value in series [6] is reported as “exhibited activity”.
Consider Rubianol-e [Compound 44], for which, in [5], the “efficacy of NO production inhibition compared with L-NMMA” value is recorded as “equivalent to L-NMMA” and the “inhibition of NO production” value is “exhibited the inhibition”.
For Rubiarbonone A [Compound 25], in the series with platelet aggregation, the “effect on platelet aggregation at the high doses” value is reported as “promoted platelet aggregation” and the “effect on platelet aggregation at the lower concentrations” value is recorded as “possessed antiplatelet aggregation activity”.
With Rubiyunnanin B [Compound 93], the “cytotoxicities against the 11 cancer cell lines” value in the series with 11 cancer cell lines is given as “moderate cytotoxicities”.
